Earlier results on 1 molecule are cited in patent publication US11446277B2, “Penetrating pain relief cream” (priority 2019, dated 2022).

For series [1], the system named is aggressive human breast cancer cells. Particulars: in vitro.
Series [2] relates to bacteria.

As for `C=C(C)[C@@H]1CCC(C)=C[C@H]1c1c(O)cc(CCCCC)cc1O` [CBD, Cannabidiol], in series [1], the “growth of aggressive human breast cancer cells” value is listed as “reduce growth” and the “invasiveness of aggressive human breast cancer cells” value is listed as “reduce their invasiveness”. Also, for the setting “animal studies”, the analgesic properties entry is “analgesic properties” and the anti-inflammatory activity result was “anti-inflammatory activity”. In addition, the sedation entry (animal tests) was “sedative effects”. Also, the growth of bacteria result in series [2] is reported as “inhibit the growth of bacteria”.
